# Assay results from patent US11945812B2, “Annulated 2-amino-3-cyano thiophenes and derivatives for the treatment of cancer” (Boehringer Ingelheim International GmbH, priority 2020, dated 2024).
# Key:
# [1] = molecular target: T1, KRAS G12C::SOS1 protein-protein interaction (Homo sapiens, UniProt P01116, C118S/C51S/C80L/G12C); assay: KRAS::SOS1 AlphaScreen binding assay; conditions: KRAS G12C::SOS1 AlphaScreen
# T1 construct: His6 (N); host or cells: E. coli
# [2] = Plasma protein binding (equilibrium dialysis), mouse plasma; assay type: in vitro ADME; conditions: read-out: PPB mouse fu
# [3] = Plasma protein binding (equilibrium dialysis), serum 10% FCS in PBS; assay type: in vitro ADME; conditions: bovine, 10% FCS in PBS (serum), read-out: PPB 10% FCS fu
# MiaPaCa-2 cells = assay: MiaPaCa-2 CTG proliferation assay (pancreatic cancer); assay type: cell-based; conditions: Homo sapiens, MIA PaCa-2, 120 h; MiaPaCa-2 CTG proliferation, 5 days; read-out: IC50 MiaPACA2
# Description: MiaPaCa-2 CTG Proliferation Assay (Pancreatic Cancer)
# MiaPaCa-2 cells (ATCC® CRM-CRL-1420™) were grown in cell culture flasks (175 cm^2) using DMEM medium supplemented with 10% fetal bovine serum. […] Materials used for the assay were CulturPlate-384, White Opaque 384-well microplate, Sterile and Tissue Culture Treated (Perkin Elmer #6007680), DMEM medium and FBS # SH30071.03 (HyClone).
# The proliferation assays started (day1) with seeding cells in flat bottom 384 well microtiter plates in 90 μL DMEM medium supplemented with 10% FBS at a density of 500 cells/well. Any other luminescence compatible plate format is possible. On day 2, 10 μL dilutions of the test compounds covering a concentration range between app. 0, 1 and 10.000 nM were added to the cells. Cells were incubated for 5 days in a humidified, incubator with 5% CO2 at 37° C. On day 7 100 μl of Cell Titer Glow reagent (Cell titer Glo Luminescent Cat. No. G7571, Promega) were added to each well and incubated for additional 10 min at room temperature (with agitation). Luminescence was measured on a Wallac Victor using standard luminescence read out. IC50 values were calculated using standard Levenburg Marquard algorithms (GraphPad Prism).
# NCI-H358 cells = assay: NCI-H358 CTG proliferation assay (120 h) (NSCLC); assay type: cell-based; conditions: Homo sapiens, read-out: IC50 NCl-H358
# Description: NCI-H358 CTG Proliferation Assay (120 h) (NSCLC)
# NCI-H358 cells (ATCC No. CRL-5807) were dispensed into white bottom opaque 96 well plates (Perkin Elmer cat no. 5680) at a density of 2000 cells per well in 100 μL RPMI-1640 ATCC-Formulation (Gibco # A10491)+10% FCS. Cells were incubated overnight at 37° C. in a humidified tissue culture incubator at 5% CO2. Compounds (10 mM stock in DMSO) were added at logarithmic dose series using the HP Digital Dispenser D300 (Tecan), normalizing for added DMSO. For the TO time point measurement, untreated cells were analyzed at the time of compound addition. Plates were incubated for 120 hours, and cell viability was measured using CellTiter-Glo luminescent cell viability reagent (Promega product code G7570). Viability (stated as percent of control) is defined as relative luminescence units RLU of each well divided by the RLU of cells in DMSO controls. IC50 values were determined from viability measurements by non-linear regression using a four parameter model.
# [4] = tested on: ERK phosphorylation in NCI-H358_Cas9_SOS2; assay: ERK phosphorylation assay 2 (AlphaLISA SureFire Ultra p-ERK1/2), SOS2 knock-out; assay type: cell-based; conditions: Homo sapiens, NCI-H358; assay 2 (marked with *); read-out: IC50 H358 pERK
# Excerpt: ERK Phosphorylation Assay
# Materials Used for the Assay;
# T1 sequence (P01116 1-169 isoform P01116-2 G12C/C51S/C80L/C118S): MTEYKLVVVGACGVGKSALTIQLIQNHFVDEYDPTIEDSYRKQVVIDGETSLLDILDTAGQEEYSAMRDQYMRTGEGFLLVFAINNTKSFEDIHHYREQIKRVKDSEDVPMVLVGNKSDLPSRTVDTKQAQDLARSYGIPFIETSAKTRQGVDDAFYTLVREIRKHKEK
smiles,measurement,setting,value
C=CC(=O)N1[C@H](C)CN(c2cc(O[C@@H](C)[C@@H]3CCCN3C)nc(-c3cc([C@@]4(C)CCCc5sc(N)c(C#N)c54)no3)n2)C[C@@H]1C [Ic-5],IC50,[1],0.005 µM
same,fraction unbound,[2],0.003
same,fraction unbound,[3],0.148
same,IC50,MiaPaCa-2 cells,0.0479 µM
same,IC50,NCI-H358 cells,0.0157 µM
same,IC50,[4],0.0131 µM
